Common to all, as to format: biochemical
For test [1], the target named is T1, cPLA2 (Homo sapiens, UniProt P47712).
T1 sequence (P47712 1-749): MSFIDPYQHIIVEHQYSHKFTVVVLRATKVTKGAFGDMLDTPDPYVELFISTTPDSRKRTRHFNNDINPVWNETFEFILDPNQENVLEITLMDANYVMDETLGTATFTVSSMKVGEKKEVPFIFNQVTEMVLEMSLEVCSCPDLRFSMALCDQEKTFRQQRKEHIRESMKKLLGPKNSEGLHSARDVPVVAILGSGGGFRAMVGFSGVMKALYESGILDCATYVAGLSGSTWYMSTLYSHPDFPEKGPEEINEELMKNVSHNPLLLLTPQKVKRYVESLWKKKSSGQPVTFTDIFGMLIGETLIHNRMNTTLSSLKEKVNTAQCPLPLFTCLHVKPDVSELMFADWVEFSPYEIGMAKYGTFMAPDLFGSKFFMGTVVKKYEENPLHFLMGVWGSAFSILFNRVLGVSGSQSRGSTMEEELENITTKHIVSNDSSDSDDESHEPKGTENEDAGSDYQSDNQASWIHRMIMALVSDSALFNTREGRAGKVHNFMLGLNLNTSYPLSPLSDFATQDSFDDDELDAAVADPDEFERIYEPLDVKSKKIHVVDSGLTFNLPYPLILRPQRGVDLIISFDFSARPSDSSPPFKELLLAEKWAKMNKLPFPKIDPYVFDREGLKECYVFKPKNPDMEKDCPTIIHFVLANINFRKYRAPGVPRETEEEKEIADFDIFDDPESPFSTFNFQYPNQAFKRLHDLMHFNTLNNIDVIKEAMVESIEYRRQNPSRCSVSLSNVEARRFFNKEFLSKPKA
Put plainly: inhibition of cPLA2. Conditions: at 1µµ.

Test [2] deals with T2, hGX sPLA2 (Homo sapiens, UniProt O15496).
T2 sequence (O15496 43-165): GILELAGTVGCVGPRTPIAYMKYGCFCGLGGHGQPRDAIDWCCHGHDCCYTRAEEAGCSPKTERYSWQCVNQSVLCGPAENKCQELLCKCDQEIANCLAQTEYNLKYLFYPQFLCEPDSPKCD
In words: continuous fluorimetric sPLA2 assay, human GX.

The target in test [3] is T3, hGIIA sPLA2 (Homo sapiens, UniProt P14555).
T3 sequence (P14555 21-144): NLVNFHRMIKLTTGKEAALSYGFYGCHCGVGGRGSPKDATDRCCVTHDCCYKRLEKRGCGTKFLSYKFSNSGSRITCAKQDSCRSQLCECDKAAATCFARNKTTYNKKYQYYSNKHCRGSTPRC
Put plainly: continuous fluorimetric sPLA2 assay, human GIIA. Conditions: compared with GK126.

“Also recorded” adds a separate entry of the source.

`CCCCCCCCCCCCCCC(=O)C(=O)N[C@@H](CC(C)C)C(=O)O` [GK126, (S)-4-Methyl-2-(2-oxohexadecanamido)pentanoic acid]: the “inhibition against cPLA2” value in test [1] is at most 12%. For the same compound, in test [2], the “inhibition of human GX sPLA2 (in words)” value is listed as “did not show any inhibition; also recorded: did not display any measurable inhibition”.
Take `CCCCCCCCCCCCCCCC(=O)N[C@@H](CC(C)C)C(=O)O` [GK144, (S)-4-Methyl-2-palmitamidopentanoic acid]: the “sPLA2 inhibitory activity (in words)” value in test [3] was “inactive”.
`CCCCCCCCCCCCCCC(=O)C(=O)N[C@@H](Cc1ccccc1)C(=O)O` [GK141, (S)-2-(2-Oxohexadecanamido)-3-phenylpropanoic acid]: the “sPLA2 inhibitory activity (in words)” value in test [3] is “inactive”.

These data come from paper PMC3050527 (Bioorganic & medicinal chemistry, 2010).
